Results published in patent US20050196806A1, “Prostate specific antigen oligoepitope peptide” (The Government of the USA, as represented by the Secretary, …, priority 1996, published 2005).
Where “and” joins values, the source holds several entries; their conditions need not be identical. Equal entries are not always repeated. Marks after values point to notes of the source that are not given here.

Columns and labels:
NK target K562 = test: Cytotoxic assay of PSA peptide specific T cells against K562; assay type: cell-based, human; settings: T-Donor A T-cell line; 24 hour assay, E:T ratio 25:1
From the text: (§1) Four of the T cell lines derived from three different individuals were then assays for their ability to lyse human cells (Table 9). […] No lysis was seen using the PSA negative human colon cancer cell line COLO-205. While 80% lysis was seen using the LNCAP PSA expressing human prostate cancer cell line. When employing the NK target K562, which measures non-specific lysis due to NK cell activity, only 23% lysis was obtained. Similar results were seen employing a different T cell line obtained from the same patient which was derived from pulsing with PSA peptide 154-163. Two additional T cell lines which were derived from peptide 154-163 were also analyzed. One was from a normal donor (T-1538) and one was from a prostate cancer patient (T-PC2; T Donor C).

human HLA A2 molecules = target: T1, human HLA A2 molecules (Homo sapiens, UniProt P04439, D140Y/D185E/D98H/E176V/E277Q/G131W/G231S/I119V/I121R/I166T/I218V/L300P/L318F/N151K/N90K/P208A/P217A/Q86G/Q94H/R138H/R169H/T345S); test: T2 cell binding assay (PSA peptide binding assay, Example II); settings: peptides at 50 μg/ml, None = 127.25
T1 construct: endogenous in cells; host or cells: T2 cells (174CEM.T2)
From the text: The amino acid sequence of human PSA was scanned using a predictive algorithm that combines a search for anchor residues with numerical assignments to all residues at all positions. The T2 cell binding assay was then used to determine which peptides bound human HLA A2 molecules. […] Table 7 gives the amino acid sequence of these peptides and compares them to corresponding sequences of HGK and PKA.

[1] = test system: PBLs isolated from male HLA-A2001+ donors; test: Limiting dilution analysis of CTL precursor frequency; assay type: cell-based, human; settings: for Number of precursors (precursor frequency): calculated by X^2 minimization; for % of negative microcolonies, 10,000: two cycles of stimulation with the peptide, targets CIRA2 pulsed 3 h, cold K562
Experimental: Limiting dilution assays were used for the determination of precursor frequencies to PSA-1, PSA-3 and PSA-OP. Various number of PBMCs were seeded in 96-well flat bottom plates (Coming Costar) with 1×10^4 autologous PBMC irradiated with 4,000 rads and incubated with 50 μg/ml of PSA peptide. Cells were cultured in complete medium as described previously. At least 48 cultures were set up for each dilution. Cultures were incubated for 5 days at 37° C. in a humidified atmosphere containing 5% CO2 and then provided with fresh medium containing human IL-2 for 11 days, with IL-2-containing medium being replenished every 72 hr as shown below for CTLs generation. After two cycles of stimulation specific cytotoxic activity was tested for each single well, against CIR-A2 target cells with or without incubation with peptide. Cytotoxic assays were similar to the method described above. The unlabelled K562 cells were added to the microwells containing responder cells. After 1 hr incubation at 37° C. target cells were added into each well and incubated for 6 hrs at 37° C. Precursor frequencies were calculated by X^2 minimization.

[2] = test system: LNCAP PSA expressing human prostate cancer cell line; test: Cytotoxic assay of PSA peptide specific T cells against LNCAP (Example III); assay type: cell-based; settings: T-Donor A T-cell line; 24 hour assay, E:T ratio 25:1; listed as 141-150
From the text: as §1

[3] = test system: PBMC from normal healthy donors expressing the HLA A2 class 1 allele; test: Establishment of human T cell lines by pulsing PBMC with peptide and IL-2; assay type: cell-based; settings: donors with T cell line / donors tested; PBMC pulsed with peptide and IL-2
From the text: Cytotoxic T-cells specific for PSA can be established from peripheral blood mononuclear cells (PBMC) obtained from a host immunized as discussed above. For example, PBMC can be separated by using Lymphocyte Separation Medium gradient (Organon Teknika, Durham, N.C., USA) as previously described [Boyum et al, Scand J. Clin Lab Invest 21:77-80 (1968)]. Washed PBMC are resuspended in a complete medium, for example, RPMI 1640 (GIBCO) supplemented with 10% pool human AB serum (Pel-Freeze Clinical System, Brown Dear, Wisc., USA), 2 mM glutamine, 100 U/ml penicillin and 100 μg/ml of streptomycin (GIBCO). PBMC at a concentration of about 2×10^5 cells in complete medium in a volume of, for example 100 μl are added into each well of a 96-well flat-bottom assay plate (Costar, Cambridge, Mass., USA). The antigen or peptides are added into the cultures in a final concentration of about 50 μg/ml and incubated at 37° C. in a humidified atmosphere containing 5% CO2 for 5 days. After removal of peptide containing media, the cultures are provided with fresh human IL-2 (10 U/ml) after 5 days and replenished with IL-2 containing medium every 3 days. Primary cultures are restimulated with the same peptide (50 μg/ml) on day 16. 5×10^5 irradiated (4,000 rad) autologous PBMC are added in a volume of about 50 μl complete medium as antigen-presenting cells (APC). […]

T2 cells = test: Cytotoxic assay of PSA peptide specific T cells against T2 cells; assay type: cell-based, human; settings: 24 hour assay, E:T ratio 25:1
[4] = target: T2, HLA class-I A2001 molecule (Homo sapiens, UniProt P04439, D140Y/D185E/D98H/E176V/E277Q/G131W/G231S/I119V/I121R/I166T/I218V/L300P/L318F/N151K/N90K/P208A/P217A/Q86G/Q94H/R138H/R169H/T345S); test: Peptide binding to HLA-A2: upregulation on T2 cells by flow cytometry (Example IV); settings: T2 cells incubated 24 h with peptide 50 μg/ml/10^6 cells; 100 cut off value for positivity; None = 16.88
T2 construct: endogenous in cells; host or cells: T2 cells (174CEM.T2, transport deletion mutant)
Experimental: 1×10^6 cells in serum-free IMDM were incubated with peptides at the concentration of 50 μg/ml in 24-well culture plates at 37° C. in 5% CO2. Flow cytometry for peptide binding was performed using T2 cells and single color analysis. After cells were washed three times in DPBS as above, they were incubated for 1 hr with HLA-A2 specific MAb A2,69 (One lambda, Inc., Canoga Park, Calif.), using 10 μl of a 1× working dilution per 10^6 cells. MOPC-21 (Cappel/Organon Teknika Corp.) was used as isotype control. The cells were then washed three times and incubated with 1:100 dilution of fluorescein (FITC) labeled anti-mouse IgG (Kirkegaard & Perry, Gaithersburg, Md.). Analysis was carried out using the FACScan as described above. Cells were maintained on ice during all cell preparation and staining unless otherwise stated.

Sequence: FLTPKKLQCV [PSA-1, ID No. 1]
- % specific release (lysis), K562 (NK target K562): 23%
- MAb A2, 69: Mean channel fluorescent intensity (human HLA A2 molecules; listed as 141-150): positive
- MAb A2, 69: Mean channel fluorescent intensity (human HLA A2 molecules; listed as PSA 141-150): 230.34
- % of negative microcolonies, 500 ([1]; T/PSA-OP 2 donor): 95.8%
- % of negative microcolonies, 1,000 ([1]; T/PSA-OP 2 donor): 93.7%
- % of negative microcolonies, 5,000 ([1]; T/PSA-OP 2 donor): 75.0%
- Number of precursors (precursor frequency) ([1]; T/PSA-OP 2 donor): 1/14695
- % of negative microcolonies, 10,000 ([1]; T/PSA-OP 2 donor): 47.9%
- % of negative microcolonies, 500 ([1]; T/PSA-OP 3 donor): 100.0%
- % of negative microcolonies, 1,000 ([1]; T/PSA-OP 3 donor): 100.0%
- % of negative microcolonies, 5,000 ([1]; T/PSA-OP 3 donor): 97.9%
- Number of precursors (precursor frequency) ([1]; T/PSA-OP 3 donor): 1/181480
- % of negative microcolonies, 10,000 ([1]; T/PSA-OP 3 donor): 93.7%
- % specific release (lysis), LNCAP [2]: 80% and 80^b %
- T cell lines established from normal donors [3]: 5/6
- % specific release (lysis), T2 (T2 cells; T-Donor A T-cell line derived with the peptide, 111In release): 10^a %
- % specific release (lysis), T2 + peptide (T2 cells; T-Donor A T-cell line): 40^b %
- T2 binding: relative fluorescence (mean intensity) with anti-HLA-A2 mAb [4]: 127.73
